Measurements from patent publication US20090137538A1, “METHOD OF TREATING ATROPHIC VAGINITIS” (priority 2006, published 2009).
Like-named read-outs stand apart in the source and are kept apart here.

How the values were obtained:
[1] = relative risk ratio vs placebo, cited from earlier work
[2] = system: menopausal women; conditions: cited from earlier work
[3] = system: SIV; conditions: vaginal transmission; base cream alone 75%; cited from earlier work
[4] = system: lactobacilli; conditions: cited from earlier work
[5] = system: endometrium; conditions: oral 2 mg per day, average three weeks prior to hysterectomy; cited from earlier work
[6] = system: women with recurrent urinary tract infections; conditions: cited from earlier work
[7] = system: urinary urgency, urge incontinence, nocturia; conditions: vaginal therapy; cited from earlier work
[8] = biological target: T1, sex hormone-binding globulin (SHBG) (Homo sapiens, UniProt P04278); conditions: unlike estradiol and estrone; cited from earlier work
T1 sequence (P04278 30-402): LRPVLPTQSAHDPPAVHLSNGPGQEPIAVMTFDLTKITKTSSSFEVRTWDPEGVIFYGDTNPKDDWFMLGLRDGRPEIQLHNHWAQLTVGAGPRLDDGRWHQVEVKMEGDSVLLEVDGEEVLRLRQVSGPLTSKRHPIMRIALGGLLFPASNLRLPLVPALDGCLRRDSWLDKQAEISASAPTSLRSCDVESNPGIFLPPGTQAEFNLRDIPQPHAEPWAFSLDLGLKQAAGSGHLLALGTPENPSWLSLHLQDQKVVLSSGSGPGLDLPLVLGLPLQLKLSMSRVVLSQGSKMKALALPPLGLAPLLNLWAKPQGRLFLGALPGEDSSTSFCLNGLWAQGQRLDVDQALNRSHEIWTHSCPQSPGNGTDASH

[9] = cited from earlier work
[10] = system: endometrium; experiment: Example 6: endometrial biopsy at 6 months; type: in vivo, human; conditions: vaginal dose of 30 mg in the combination suppository, biopsy after 6 months
Excerpt: Five patients underwent an endometrial biopsy (EMB) after 6 months of treatment.

[11] = cited from earlier work; remark: listed apart in the source
[12] = cited from earlier work; remark: listed apart in the source
[13] = vaginal ring, after vaginal administration; cited from earlier work
[14] = dose of 0.5 mg, menopausal patients

SMILES: NC(=O)C(c1ccccc1)(c1ccccc1)[C@@H]1CCN(CCc2ccc3c(c2)CCO3)C1 [Darifenacin]
- Any AE* ([1]; dose 7.5 mg): 1.2
- Constipation ([1]; dose 7.5 mg): 2.2
- Dry Mouth ([1]; dose 7.5 mg): 2.2
- Any AE* ([1]; dose 15 mg): 1.4
- Constipation ([1]; dose 15 mg): 2.4
- Dry Mouth ([1]; dose 15 mg): 2.9

SMILES: C[C@]12CC[C@@H]3c4ccc(O)cc4CC[C@H]3[C@@H]1C[C@@H](O)[C@@H]2O [Estriol, 16-alpha, 17-beta, estra 1,3,5 (10) triene 3, 16, 17-triol]
- reduction of the vaginal pH [2, 14]: failed to reduce
- vaginal pH after therapy ([2]; menopausal women, ovules 1 mg, 24 weeks): 4.12
- SIV infection rate [3]: 8.3%
- patients in whom lactobacilli reappeared ([4]; after one month, no patients receiving placebo): 61%
- restoration of the population of lactobacilli [4, 14]: failed to restore
- women with hyperplastic changes on histological exam of the uteri [5]: 70.8%
- reduction of the requirement for antibiotics compared to those unsupplemented [6]: up to 16 times
- alleviating nocturia [7]: 54%
- alleviating urge incontinence [7]: 58%
- alleviating urinary urgency [7]: 56%
- binding to sex hormone-binding globulin [8]: does not bind

SMILES: CC(=O)O[C@]1(C(C)=O)CC[C@H]2[C@@H]3C[C@H](C)C4=CC(=O)CC[C@]4(C)[C@H]3CC[C@@]21C [MPA, Medroxyprogesterone Acetate]
- Lipid Profile ([9]; in vivo): MPA: adversely effects lipid profile and negates the beneficial
- Liver function ([9]; in vivo): MPA: contraindicated in patients with liver dysfunction.
- Sleep and Mood ([9]; in vivo): MPA: can cause insomnia, mental depression, and anxiety.

SMILES: CCN(CC)CC#CCOC(=O)C(O)(c1ccccc1)C1CCCCC1 (stereo not drawn) [Oxybutynin IR, Oxybutynin]
- Any AE* ([1]; dose 8.8-15 mg): 1.4
- Blurred Vision ([1]; dose 8.8-15 mg): 1.7
- Dry Mouth ([1]; dose 8.8-15 mg): 3.3
- Dyspepsia ([1]; dose 8.8-15 mg): 3.3
- Urinary Retention* ([1]; dose 8.8-15 mg): 5.6

SMILES: CC(=O)[C@H]1CC[C@H]2[C@@H]3CCC4=CC(=O)CC[C@]4(C)[C@H]3CC[C@]12C [Progesterone, pregn-4-ene-3, 20-dione]
- Quality of life/menopausal symptoms ([9]; MP-containing HRT compared with MPA-containing regimen): containing HRT experienced significant improvement in symptoms
- Cardiovascular Events ([9]; in vivo): MP: has antihypertensive action and can be safely used to treat
- Lipid Profile ([9]; in vivo): MP: does not negate the beneficial effects of estrogen and modestly
- Liver function ([9]; in vivo): MP: does not effect liver enzymes or cause liver related side
- Sleep and Mood ([9]; in vivo): MP: improves the quality of sleep and has sedative properties.
- effect on estrogen stimulated postmenopausal endometrium [10]: anti-proliferative effect
- serum concentration ([11]; 25 mg vaginal suppository): 7.27 ng/mL
- serum concentration ([11]; 50 mg vaginal suppository): 8.84 ng/mL

SMILES: O=C(O[C@H]1C[C@H]2CC[C@@H](C1)[N+]21CCCC1)C(O)(c1ccccc1)c1ccccc1 [Trospium]
- Any AE* ([1]; dose 40 mg): 1.5
- Constipation ([1]; dose 40 mg): 2.1
- Dry Mouth ([1]; dose 40 mg): 3.2

SMILES: C[C@]12CC[C@@H]3c4ccc(O)cc4CC[C@H]3[C@@H]1CC[C@@H]2O [estradiol]
- serum estradiol levels after vaginal versus oral administration ([12]; same dose): ten-fold higher
- endometrial concentrations after vaginal versus oral administration ([12]; same exact dose): seventy-fold higher

SMILES: C#C[C@]1(O)CC[C@H]2[C@@H]3CCc4cc(O)ccc4[C@H]3CC[C@@]21C [ethinylestradiol]
- bioavailability [13]: approximately 55.6%
